Experimental data: PubChem BioAssay AID1259407 (Chemical Carcinogenesis Research Information System (CCRIS), 2018)
Calls of active or inactive are those of the source. How the calls were made is not given here.

Test system: CCRIS mutagenicity, Ames/micronucleus/aberration tests
Assay: CCRIS mutagenicity studies
[1] = Test System: AMES SALMONELLA TYPHIMURIUM, Strain/Indicator: TA98, Metabolic Activation: NONE, Method: PREINCUBATION
[2] = Test System: AMES SALMONELLA TYPHIMURIUM, Strain/Indicator: TA100, Metabolic Activation: NONE, Method: PREINCUBATION
[3] = Test System: AMES SALMONELLA TYPHIMURIUM, Strain/Indicator: TA98, Metabolic Activation: NONE, Method: STANDARD PLATE
[4] = Test System: AMES SALMONELLA TYPHIMURIUM, Strain/Indicator: TA100, Metabolic Activation: NONE, Method: STANDARD PLATE
[5] = Test System: AMES SALMONELLA TYPHIMURIUM, Strain/Indicator: TA100, Metabolic Activation: RAT, LIVER, S-9, AROCLOR 1254, Method: STANDARD PLATE

O=C1CCCc2c1ccc1c([N+](=O)[O-])c3ccccc3cc21
mutagenic call (Test System: AMES SALMONELLA TYPHIMURIUM, Strain/Indicator: TA98, Metabolic Activation: NONE): inactive; negative | mutagenic call (Test System: AMES SALMONELLA TYPHIMURIUM, Strain/Indicator: TA98, Metabolic Activation: S-9): inactive; negative | mutagenic call (Test System: AMES SALMONELLA TYPHIMURIUM, Strain/Indicator: TA100, Metabolic Activation: NONE): inactive; negative | mutagenic call (Test System: AMES SALMONELLA TYPHIMURIUM, Strain/Indicator: TA100, Metabolic Activation: S-9): inactive; negative

N.N.[Br-].[Br-].[Pt+2]
mutagenic call [1]: active; positive | mutagenic call [2]: active; positive

c1ccc(COCc2ccccc2)cc1
mutagenic call (Test System: AMES SALMONELLA TYPHIMURIUM, Strain/Indicator: TA97, Metabolic Activation: HAMSTER, LIVER, S-9, AROCLOR 1254 (10 OR 30%), Method: PREINCUBATION): inactive; negative | mutagenic call (Test System: AMES SALMONELLA TYPHIMURIUM, Strain/Indicator: TA97, Metabolic Activation: NONE, Method: PREINCUBATION): inactive; negative | mutagenic call (Test System: AMES SALMONELLA TYPHIMURIUM, Strain/Indicator: TA97, Metabolic Activation: RAT, LIVER, S-9, AROCLOR 1254 (10 OR 30%), Method: PREINCUBATION): inactive; negative | mutagenic call (Test System: AMES SALMONELLA TYPHIMURIUM, Strain/Indicator: TA98, Metabolic Activation: HAMSTER, LIVER, S-9, AROCLOR 1254 (10 OR 30%), Method: PREINCUBATION): inactive; negative | mutagenic call [1]: inactive; negative | mutagenic call (Test System: AMES SALMONELLA TYPHIMURIUM, Strain/Indicator: TA98, Metabolic Activation: RAT, LIVER, S-9, AROCLOR 1254 (10 OR 30%), Method: PREINCUBATION): inactive; negative | mutagenic call (Test System: AMES SALMONELLA TYPHIMURIUM, Strain/Indicator: TA98, Metabolic Activation: RAT, LIVER, S-9, AROCLOR 1254 (30%), Method: PREINCUBATION): inactive; negative | mutagenic call (Test System: AMES SALMONELLA TYPHIMURIUM, Strain/Indicator: TA100, Metabolic Activation: HAMSTER, LIVER, S-9, AROCLOR 1254 (10%), Method: PREINCUBATION): inactive; negative | mutagenic call (Test System: AMES SALMONELLA TYPHIMURIUM, Strain/Indicator: TA100, Metabolic Activation: HAMSTER, LIVER, S-9, AROCLOR 1254 (30%), Method: PREINCUBATION): inactive; negative | mutagenic call [2]: inactive; negative | mutagenic call (Test System: AMES SALMONELLA TYPHIMURIUM, Strain/Indicator: TA100, Metabolic Activation: RAT, LIVER, S-9, AROCLOR 1254 (10%), Method: PREINCUBATION): inactive; negative | mutagenic call (Test System: AMES SALMONELLA TYPHIMURIUM, Strain/Indicator: TA100, Metabolic Activation: RAT, LIVER, S-9, AROCLOR 1254 (30%), Method: PREINCUBATION): inactive; negative | mutagenic call (Test System: AMES SALMONELLA TYPHIMURIUM, Strain/Indicator: TA1535, Metabolic Activation: HAMSTER, LIVER, S-9, AROCLOR 1254 (10 OR 30%), Method: PREINCUBATION): inactive; negative | mutagenic call (Test System: AMES SALMONELLA TYPHIMURIUM, Strain/Indicator: TA1535, Metabolic Activation: NONE, Method: PREINCUBATION): inactive; negative | mutagenic call (Test System: AMES SALMONELLA TYPHIMURIUM, Strain/Indicator: TA1535, Metabolic Activation: RAT, LIVER, S-9, AROCLOR 1254 (10 OR 30%), Method: PREINCUBATION): inactive; negative

C1OC1C1CO1 (centres undefined)
mutagenic call (End Point: IN VITRO CHROMOSOMAL ABERRATIONS, Test System: HUMAN PERIPHERAL LYMPHOCYTES, Metabolic Activation: NONE, Method: FISH (DUAL COLOR FOR CHROMOSOMES 7, 8, 12 AND X)): active; positive (hyperdiploidy of chromosomes 12 and x) | mutagenic call (End Point: IN VITRO MICRONUCLEUS, Test System: HUMAN PERIPHERAL LYMPHOCYTES, Metabolic Activation: NONE): active; positive | mutagenic call [3]: active; positive | mutagenic call [4]: active; positive | mutagenic call [5]: active; positive | mutagenic call (Test System: AMES SALMONELLA TYPHIMURIUM, Strain/Indicator: TA102, Metabolic Activation: NONE, Method: STANDARD PLATE): active; positive | mutagenic call (Test System: AMES SALMONELLA TYPHIMURIUM, Strain/Indicator: TA1535, Metabolic Activation: NONE, Method: STANDARD PLATE): active; positive | mutagenic call (Test System: AMES SALMONELLA TYPHIMURIUM, Strain/Indicator: TA7004, Metabolic Activation: NONE, Method: STANDARD PLATE): inactive; negative | mutagenic call (Test System: AMES SALMONELLA TYPHIMURIUM, Strain/Indicator: TA7005, Metabolic Activation: NONE, Method: STANDARD PLATE): inactive; negative | mutagenic call (Test System: CHINESE HAMSTER V-79, Strain/Indicator: V-79/6-THIOGUANINE, Metabolic Activation: NONE, Method: FLASK ASSAY): active; positive | mutagenic call (Test System: UDS MOUSE EPIDERMIS IN VIVO/IN VITRO, Strain/Indicator: HOS:HR-1/THYMIDINE INCORPORATION, Metabolic Activation: NONE, Method: LIQUID SCINTILLATION): active; positive

CSSC
mutagenic call [1]: inactive; negative | mutagenic call (Test System: AMES SALMONELLA TYPHIMURIUM, Strain/Indicator: TA98, Metabolic Activation: RAT, LIVER, S-9, AROCLOR 1254, Method: PREINCUBATION): inactive; negative | mutagenic call [2]: inactive; negative | mutagenic call (Test System: AMES SALMONELLA TYPHIMURIUM, Strain/Indicator: TA100, Metabolic Activation: RAT, LIVER, S-9, AROCLOR 1254, Method: PREINCUBATION): inactive; negative | mutagenic call (Test System: AMES SALMONELLA TYPHIMURIUM, Strain/Indicator: TA102, Metabolic Activation: NONE, Method: PREINCUBATION): inactive; negative | mutagenic call (Test System: AMES SALMONELLA TYPHIMURIUM, Strain/Indicator: TA102, Metabolic Activation: RAT, LIVER, S-9, AROCLOR 1254, Method: PREINCUBATION): inactive; negative

O=C1C=Cc2ccc3c(ccc4ccccc43)c2C1=O
mutagenic call [3]: inactive; negative | mutagenic call [5]: active; positive

C=C(Br)C=O
mutagenic call (Test System: AMES SALMONELLA TYPHIMURIUM, Strain/Indicator: TA100, Metabolic Activation: NONE, Method: LIQUID INCUBATION): active; positive | mutagenic call [2]: active; positive | mutagenic call (Test System: AMES SALMONELLA TYPHIMURIUM, Strain/Indicator: TA100, Metabolic Activation: NONE, Method: PREINCUBATION, LIQUID INCUBATION): active; positive | mutagenic call [4]: active; positive | mutagenic call (Test System: AMES SALMONELLA TYPHIMURIUM, Strain/Indicator: TA100, Metabolic Activation: RAT, LIVER, MICROSOMES, Method: PREINCUBATION): active; positive | mutagenic call (Test System: AMES SALMONELLA TYPHIMURIUM, Strain/Indicator: TA104, Metabolic Activation: NONE, Method: PREINCUBATION): active; positive | mutagenic call (Test System: AMES SALMONELLA TYPHIMURIUM, Strain/Indicator: TA1535, Metabolic Activation: NONE, Method: LIQUID INCUBATION): active; positive | mutagenic call (Test System: AMES SALMONELLA TYPHIMURIUM, Strain/Indicator: TA1535, Metabolic Activation: NONE, Method: PREINCUBATION, LIQUID INCUBATION): active; positive | mutagenic call (Test System: UDS RAT HEPATOCYTES, Strain/Indicator: THY INCORP, Metabolic Activation: NONE): inactive; negative

CC12OOC1Oc1ccccc12 (centres undefined)
mutagenic call [2]: active; positive

O=c1c2cc(O)ccc2oc2cc(O)cc(O)c12
mutagenic call (Test System: AMES SALMONELLA TYPHIMURIUM, Strain/Indicator: TA97, Metabolic Activation: RAT, LIVER, S-9, PHENOBARBITAL AND 5,6-BENZOFLAVONE, Method: PREINCUBATION): active; positive | mutagenic call (Test System: AMES SALMONELLA TYPHIMURIUM, Strain/Indicator: TA98, Metabolic Activation: RAT, LIVER, S-9, PHENOBARBITAL AND 5,6-BENZOFLAVONE, Method: PREINCUBATION): inactive; negative | mutagenic call (Test System: AMES SALMONELLA TYPHIMURIUM, Strain/Indicator: TA100, Metabolic Activation: RAT, LIVER, S-9, PHENOBARBITAL AND 5,6-BENZOFLAVONE, Method: PREINCUBATION): active; positive | mutagenic call (Test System: AMES SALMONELLA TYPHIMURIUM, Strain/Indicator: TA2637, Metabolic Activation: RAT, LIVER, S-9, PHENOBARBITAL AND 5,6-BENZOFLAVONE, Method: PREINCUBATION): active; positive
